# Measured values taken from EPA's ToxValDB 9.5 (doi:10.2903/j.efsa.2009.201r).
# How the values were obtained:
# Apis mellifera = conditions: acute; duration: 48 hours; dermal; mortality
# Tagia sp. = conditions: mortality
# Rattus norvegicus = conditions: for NOAEL: chronic
# Canidae = conditions: chronic; duration: 1 years; oral; Dog Other; body weight
# Daphnia magna = conditions: chronic/long-term; duration: 21 days; growth
# Anas platyrhynchos = conditions: oral, mortality
structure (smiles),measurement,setting,value
COc1nc(C)nc(NC(=O)NS(=O)(=O)c2ccccc2Cl)n1 [Chlorsulfuron],LC50,"Oncorhynchus mykiss; acute, duration: 96 hours, mortality",> 122 mg/L
same,NOEC,"Oncorhynchus mykiss; chronic/long-term, duration: 77 days, growth",32 mg/L
same,LD50,Apis mellifera,> 100 µg/piece
same,LD50,"Colinus virginianus; acute, oral, mortality",> 5000 mg/kg-day
same,NOEL,Colinus virginianus; reproduction developmental,28 mg/kg-day
same,LC50,"Tagia sp.; acute, duration: 14 days",> 750 mg/kg
same,NOEC,"Tagia sp.; chronic/long-term, duration: 56 days",188 mg/kg
same,LD50,"Rattus norvegicus; acute, oral, mortality",> 5540 mg/kg-day
same,NOAEL,Rattus norvegicus,75 mg/kg-day
same,NOAEL,"Rattus norvegicus; duration: 2 years, histopathology: neoplastic",20 mg/kg-day
same,NOAEL,Canidae,60.6 mg/kg-day
same,NOEC,Daphnia magna,12 mg/L
same,LD50,"Anas platyrhynchos; acute, unspecified",> 5000 mg/kg-day
same,LC50,"Anas platyrhynchos; short-term, feed",> 634 mg/kg-day
